Assay results: patent US20050215548A1 (Cyclacel Limited, priority 2002, published 2005)

What was measured:
Type in all cases: cell-based, human
AGS = assay: Combination treatment with cisplatin or etoposide, MTT, AGS; conditions: MTT, 72 hours, Table 5, read-out: IC50, agent alone
Excerpt: (§1) It is well established that radiotherapy and most current forms of chemotherapy cause extensive genetic damage and induction of the p53-dependent apoptotic pathway, which determines the important role of this tumor suppressor protein in cancer therapy. HDM2, on the other hand, as a transcriptional product and negative regulator pf p53, would destabilise p53 and diminish its pro-apoptotic function. Inhibitors of the p53-HDM2 negative feedback loop (e.g. compounds disrupting the p53-HDM2 complex) are expected to synergise with cytotoxic agents for induction of p53 and subsequent apoptosis. […] Both chemotherapeutic agents were used in the concentration range of 100-0.19 μM.

MCF7 or H1299 cells = assay: Cell cycle distribution, propidium iodide flow cytometry; conditions: 5 times IC50
Description: Cells were stained with propidium iodide and the cell cycle position was determined using a flow cytometer.

SJSA-1 = assay: Combination treatment with cisplatin or etoposide, MTT, SJSA-1; conditions: MTT, 72 hours, Table 5, read-out: IC50, agent alone
Excerpt: as §1

[1] = test system: key proteins in the HDM2 pathway; assay: SDS-PAGE and immunoblotting of key proteins in the HDM2 pathway; conditions: compound 2: AGS, H1299, MCF7 or SJSA1 cells; etoposide or cisplatinum: AGS or MCF7 cells
Excerpt: Equal amounts of cell lysate were separated by SDS-PAGE and analysed by immunoblotting using the indicated antibodies. An estimation of the extent of cell rounding is indicated above each lane. […] (B) The effect of compound 2 on the levels of the cell cycle proteins in AGS cells (wild-type 53). […] Equal amounts of cell lysate were separated by SDS-PAGE and analysed by immunoblotting using the indicated antibodies. An estimation of the extent of cell rounding is indicated above each lane. (C) The effect of negative control compound (refer Example 10), compound 2, cisplatin, and anisomycin on the levels of key proteins in MCF7 cells. […] Cisplatinum and anisomycin (a transcription inhibitor) treatments were with 50 μM or 37 μM, respectively. Cells were harvested at various time points; afterwards lysates were prepared and separated by SDS-PAGE and analysed by immunoblotting. The proteins detected are indicated. The extent of rounded or floating cells and the percentage viable cells were assessed. […] Equal amounts of cell lysate were separated by SDS-PAGE and analysed by immunoblotting using a range of antibodies. An estimation of the extent of cell rounding is indicated above each lane. […] SJSA1 cells were treated with 5 times [IC50] of compound 2 and collected at the indicated time points. Equal amounts of cell lysate were separated by SDS-PAGE and analysed by immunoblotting using a range of antibodies. An estimation of the extent of cell rounding is indicated above each lane.
Many types of cellular stress converge on the p53 pathway and induce its activity. […] The biological effect of bisarylsufonamides on cellular level was studies using representative compounds (mainly compound 2) and number of cell lines with different HDM2 and p53 status. These were overexpressing Hdm2 (SJSA1—osteosarcoma), wild type p53 and normal levels of HDM2 (AGS—gastric adenocarcinoma, MCF7—breast adenocarcinoma), or p53 null, low levels of HDM2 (H1299—large cell lung carcinoma).
Cells were lysed and equal amounts were analysed by SDS-polyacrylamide gel electrophoresis (SDS-PAGE) and immunoblotting.

H1299 = assay: Combination treatment with cisplatin or etoposide, MTT, H1299; conditions: MTT, 72 hours, Table 5, read-out: IC50, agent alone
Excerpt: as §1

N.N.[Cl][Pt][Cl] [Cisplatin, reference compound]
IC50 (AGS): 3.8 µM | cell cycle arrest (MCF7 or H1299 cells): no detectable arrest at any phase of the cell cycle | sub-G1 cells, indicative of apoptosis (MCF7 or H1299 cells): induced sub-G1 cells | IC50 (SJSA-1): 6.1 µM | p53 level and p53 phosphorylation at serine 15 [1]: inducing p53 phosphorylation of serine 15, as well as increasing the p53 and E2F-1 protein levels | IC50 (H1299): 2.9 µM
